The source of these data is BindingDB's records for doi:10.1021/acs.jmedchem.3c00963 (n/a, 2023).

The assay deals with Dual specificity protein kinase TTK (Mus musculus) (UniProt P35761). Kind of assay: Inhibition of mouse MPS1.

The structures appear in SMILES notation.

Chain of Dual specificity protein kinase TTK (Mus musculus) (P35761 whole entry, looked up): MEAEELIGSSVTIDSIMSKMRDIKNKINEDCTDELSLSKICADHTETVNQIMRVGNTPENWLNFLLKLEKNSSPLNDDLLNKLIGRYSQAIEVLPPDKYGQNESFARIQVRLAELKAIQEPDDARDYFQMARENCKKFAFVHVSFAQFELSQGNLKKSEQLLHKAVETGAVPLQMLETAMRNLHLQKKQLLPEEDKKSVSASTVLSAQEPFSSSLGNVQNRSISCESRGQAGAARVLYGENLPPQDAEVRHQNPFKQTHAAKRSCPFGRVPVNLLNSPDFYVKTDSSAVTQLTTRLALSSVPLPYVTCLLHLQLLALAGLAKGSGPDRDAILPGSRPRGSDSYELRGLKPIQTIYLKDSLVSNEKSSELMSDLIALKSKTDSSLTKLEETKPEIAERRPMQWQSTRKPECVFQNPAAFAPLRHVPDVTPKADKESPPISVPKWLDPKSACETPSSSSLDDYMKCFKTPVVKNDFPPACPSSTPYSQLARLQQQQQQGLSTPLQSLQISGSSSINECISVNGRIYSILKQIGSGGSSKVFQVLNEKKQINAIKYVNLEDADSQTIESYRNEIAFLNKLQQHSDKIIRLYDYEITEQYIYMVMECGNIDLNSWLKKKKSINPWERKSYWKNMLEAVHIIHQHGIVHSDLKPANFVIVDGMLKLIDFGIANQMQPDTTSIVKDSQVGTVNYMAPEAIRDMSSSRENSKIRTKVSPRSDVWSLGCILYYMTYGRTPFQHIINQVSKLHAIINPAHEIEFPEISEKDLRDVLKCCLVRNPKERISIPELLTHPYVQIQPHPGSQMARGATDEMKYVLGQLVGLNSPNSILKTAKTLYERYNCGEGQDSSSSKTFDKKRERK

Regarding `CC(C)CNc1nccn2c(-c3ccc(C(=O)NC4CC4)cc3)cnc12`, the IC50 – broadly, the concentration that inhibits the measured activity by half – was 55 nM. The result for `CC(C)CNc1nc(-c2cccc3ncccc23)cn2c(-c3ccc(C(=O)NC4CC4)cc3)cnc12` reads 9 nM.
